Laboratory results from PMC6959544 (Bioorganic & medicinal chemistry, 2017).

Tests used:
[1] = target: hTRPV1 (Homo sapiens, UniProt Q8NER1); assay: In vitro hTRPV1 antagonism: inhibition of activation by capsaicin; format: cell-based; settings: hTRPV1 in CHO cells, capsaicin 100 nM, FLIPR
[2] = system: CCI-induced cold allodynia (Bennett mouse model of neuropathic pain); assay: Analgesic activity on CCI-induced cold allodynia; format: in vivo; settings: oral
[3] = system: capsaicin-induced hypothermia; assay: Capsaicin-induced hypothermia; format: in vivo; settings: data not shown

hTRPV1, sequence (Q8NER1 whole entry): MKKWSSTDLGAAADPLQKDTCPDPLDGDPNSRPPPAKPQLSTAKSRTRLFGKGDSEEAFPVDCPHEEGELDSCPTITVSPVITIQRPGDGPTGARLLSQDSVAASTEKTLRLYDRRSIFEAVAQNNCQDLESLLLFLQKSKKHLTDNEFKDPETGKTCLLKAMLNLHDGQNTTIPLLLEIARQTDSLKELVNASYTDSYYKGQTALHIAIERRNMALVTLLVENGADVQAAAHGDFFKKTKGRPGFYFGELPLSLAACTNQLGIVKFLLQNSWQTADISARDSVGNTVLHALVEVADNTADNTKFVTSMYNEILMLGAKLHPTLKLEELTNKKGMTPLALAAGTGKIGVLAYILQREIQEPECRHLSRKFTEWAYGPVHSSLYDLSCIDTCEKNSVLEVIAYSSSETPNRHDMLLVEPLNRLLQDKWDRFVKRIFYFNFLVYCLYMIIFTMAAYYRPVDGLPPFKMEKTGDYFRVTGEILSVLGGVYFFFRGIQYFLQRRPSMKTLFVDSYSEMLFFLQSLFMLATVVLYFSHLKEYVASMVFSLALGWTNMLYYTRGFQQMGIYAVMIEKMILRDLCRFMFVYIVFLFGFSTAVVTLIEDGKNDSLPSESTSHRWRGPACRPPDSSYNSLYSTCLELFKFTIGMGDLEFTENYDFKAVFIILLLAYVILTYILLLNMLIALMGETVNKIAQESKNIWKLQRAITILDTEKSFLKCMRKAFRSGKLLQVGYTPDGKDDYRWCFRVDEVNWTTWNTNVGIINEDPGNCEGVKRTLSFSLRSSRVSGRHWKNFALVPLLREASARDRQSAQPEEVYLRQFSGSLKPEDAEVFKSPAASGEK

CC(C(=O)NCc1ccc(C(C)(C)C)nc1OCc1ccc(F)cc1)c1ccc(NS(C)(=O)=O)c(F)c1 (centres unmarked) [Compound 23, N-((6-(tert-Butyl)-2-((4-fluorobenzyl)oxy)pyridin-3-yl)methyl)-2-(3-fluoro-4-(methylsulfonamido)phenyl)propanamide]
hTRPV1 antagonism (in words) [1]: good antagonism

C[C@H](C(=O)NCc1ccc(C(C)(C)C)nc1SC1CCCCC1)c1ccc(NS(C)(=O)=O)c(F)c1 [Compound 34S]
antiallodynic effect on cold allodynia, % MPE ([2]; 3 mg/kg): greater than 50 % MPE | in vivo functional character (in words) ([2]; 10 mg/kg): partial agonism | antiallodynic activity (in words) ([2]; dose increased from 3 mg/kg to 10 mg/kg): decreased antiallodynic activity | capsaicin-induced hypothermia, % MPE ([3]; 3 mg/kg po): 46 % MPE | capsaicin-induced hypothermia, % MPE ([3]; 10 mg/kg po): 15 % MPE

N-((6-(tert-Butyl)-2-(cyclohexyloxy)pyridin-3-yl)methyl)-2-(3-fluoro-4-(methylsulfonamido)phenyl)propanamide [Compound 21]
hTRPV1 antagonism (in words) [1]: clear reduction in potency

N-((6-(tert-Butyl)-2-(cyclopentyloxy)pyridin-3-yl)methyl)-2-(3-fluoro-4-(methylsulfonamido)phenyl)propanamide [Compound 20]
hTRPV1 antagonism (in words) [1]: clear reduction in potency
